This is an account of results in patent US9518026B2, “5-aminopyrazole-4-carboxamide inhibitors of CDPK1 from T. gondii and C. parvum” (UNIVERSITY OF WASHINGTON THROUGH ITS CENTER FOR …, priority 2013, dated 2016).

A short description of data set [1]: Cytotoxicity against CRL8155 cell line. Conditions: human, CRL8155 cells (lymphoblast, spleen). The class given is cell-based.
In another data set the target is Src (Homo sapiens (Human), UniProt P12931). Nature of the data set: biochemical.
The next data set is described as follows: Cell toxicity in HepG2. The class given is cell-based. As to conditions: human, HepG2 cells (hepatocellular carcinoma); Table 4. The method, then: All compounds were assayed for inhibition of TgCDPK1 and CpCDPK1 and on the small-gatekeeper (Thr) human kinases, Src and Abl. Human cell toxicity was evaluated in two human cell lines, HepG2 (hepatocellular carcinoma) and CRL8155 (lymphoblast, spleen). hERG inhibition has been associated with long Q-T syndrome (cardiotoxicity), and the compounds were evaluated for hERG inhibitory activity.

The target in a further data set is TgCDPK1 (Toxoplasma gondii, UniProt Q9BJF5). Description: biochemical.
Another data set concerns T. gondii. Description: Inhibition of T. gondii cell proliferation. Conditions: Toxoplasma gondii; Table 4; read-out: Inhibit Parasite Prolif. (EC50, μM) T. gondii. The class given is cell-based.
The target of the next data set is Abl (Homo sapiens (Human), UniProt P00519). Nature of the data set: biochemical.
A further data set has as its target CpCDPK1 (Cryptosporidium parvum (strain Iowa II), UniProt A3FQ16). Description: biochemical.
For a further data set, the system named is C. parvum. Description: Inhibition of C. parvum proliferation. Type of data set: cell-based. Conditions: Cryptosporidium parvum, read-out: Inhibit Parasite Prolif. (EC50, μM) C. parvum.
Another data set relates to C. parvum Iowa strain. Description: C. parvum infection in mice (beige/SCID mouse model). Conditions: oral gavage 20 mg/kg 8 AM and 40 mg/kg 5 PM, days 5-14 after infection; each time point except Days 0 and 3; p≦0.05.
In the next data set the target is Prkcn (Homo sapiens (Human), UniProt O94806). Description: Kinase panel selectivity: Prkcn. Type of data set: biochemical.
Data set [2] can be described thus: Stability (comparison of compound 39 and compound 9).
In another data set the target is hERG (Homo sapiens (Human), UniProt Q12809). Nature of the data set: biochemical. The class given is binding.
The subject of data set [3] is 80 human protein kinases (hPKs). Description: AbbVie panel of 80 human protein kinases. As to conditions: at levels up to 3 μM; tested by AbbVie. The class given is biochemical.
The test system of data set [4] is 24 off-target liabilities (e.g. ion channels, G-protein receptors). Nature of the data set: 24 off-target liability screen. Conditions: tested by AbbVie.
Data set [5] relates to T. gondii Type 1 RH strain tachyzoites. Description: T. gondii infection in mice. Type of data set: in vivo. Conditions: CF-1 mice, peritoneal lavage day 8. The source says: 1×10^5 T. gondii Type 1 RH strain tachyzoites expressing YFP were inoculated i.p. into 4-5 wk old female CF-1 mice (n=4). […] On day 8, the mice were killed, and underwent peritoneal lavage. T. gondii were enumerated via fluorescent microscopy and plotted, per mouse.

Data set [6] can be described thus: Oral availability (comparison of compound 39 and compound 9). The class given is in vivo. Conditions: compared with compound 9 (1294).
Another data set concerns the target Kdr (Homo sapiens (Human), UniProt P35968). Description: Kinase panel selectivity: Kdr. Type of data set: biochemical.
For a further data set, the system named is P-gp. Description: Diffusion across the MDCK-PGP monolayer. Type of data set: in vitro ADME. As to conditions: dog, MDCK-MDR1; predicts CNS penetration.
A further data set in a line: Solubility at pH 6.5. Type of data set: physicochemical.
Data set [7] is described as follows: Pharmacokinetic studies in mice. As to conditions: mouse, in vivo, 10 mg/kg.
[8] abbreviates: Table 4, read-out: Cell toxicity (EC50, μM) CRL 8155.
[9] abbreviates: Table 1, KinaseGlo, Syntide 2 peptide substrate, read-out: CpCDPK1 IC50.
Where [10] appears, read: Table 2, read-out: Cytotoxicity (CRL8155) EC50.

Like-named read-outs stand apart in the source and are kept apart here.

Sequence of Src (P12931 270-523): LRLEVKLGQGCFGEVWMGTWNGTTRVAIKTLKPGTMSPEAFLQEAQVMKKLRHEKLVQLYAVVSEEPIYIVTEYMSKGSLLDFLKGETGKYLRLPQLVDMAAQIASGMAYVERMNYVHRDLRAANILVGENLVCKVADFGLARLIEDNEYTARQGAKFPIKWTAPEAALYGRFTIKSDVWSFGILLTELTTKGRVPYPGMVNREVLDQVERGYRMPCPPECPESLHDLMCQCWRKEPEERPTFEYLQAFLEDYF
Sequence of CpCDPK1 (A3FQ16 1-538): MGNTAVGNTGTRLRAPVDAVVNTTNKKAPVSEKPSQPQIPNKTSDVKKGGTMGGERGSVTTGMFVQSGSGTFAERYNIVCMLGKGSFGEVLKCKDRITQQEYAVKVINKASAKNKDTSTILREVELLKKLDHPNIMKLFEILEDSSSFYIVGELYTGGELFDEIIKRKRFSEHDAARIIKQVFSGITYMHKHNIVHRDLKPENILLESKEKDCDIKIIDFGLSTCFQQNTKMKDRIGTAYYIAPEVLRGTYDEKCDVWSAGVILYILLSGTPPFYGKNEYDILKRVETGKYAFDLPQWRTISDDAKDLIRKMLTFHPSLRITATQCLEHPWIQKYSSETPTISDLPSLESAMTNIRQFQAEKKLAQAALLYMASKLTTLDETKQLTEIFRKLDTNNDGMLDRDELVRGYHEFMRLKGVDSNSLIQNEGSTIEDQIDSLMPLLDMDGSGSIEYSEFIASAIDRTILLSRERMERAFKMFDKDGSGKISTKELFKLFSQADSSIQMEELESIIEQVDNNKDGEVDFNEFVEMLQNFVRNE
Sequence of hERG (Q12809 whole entry): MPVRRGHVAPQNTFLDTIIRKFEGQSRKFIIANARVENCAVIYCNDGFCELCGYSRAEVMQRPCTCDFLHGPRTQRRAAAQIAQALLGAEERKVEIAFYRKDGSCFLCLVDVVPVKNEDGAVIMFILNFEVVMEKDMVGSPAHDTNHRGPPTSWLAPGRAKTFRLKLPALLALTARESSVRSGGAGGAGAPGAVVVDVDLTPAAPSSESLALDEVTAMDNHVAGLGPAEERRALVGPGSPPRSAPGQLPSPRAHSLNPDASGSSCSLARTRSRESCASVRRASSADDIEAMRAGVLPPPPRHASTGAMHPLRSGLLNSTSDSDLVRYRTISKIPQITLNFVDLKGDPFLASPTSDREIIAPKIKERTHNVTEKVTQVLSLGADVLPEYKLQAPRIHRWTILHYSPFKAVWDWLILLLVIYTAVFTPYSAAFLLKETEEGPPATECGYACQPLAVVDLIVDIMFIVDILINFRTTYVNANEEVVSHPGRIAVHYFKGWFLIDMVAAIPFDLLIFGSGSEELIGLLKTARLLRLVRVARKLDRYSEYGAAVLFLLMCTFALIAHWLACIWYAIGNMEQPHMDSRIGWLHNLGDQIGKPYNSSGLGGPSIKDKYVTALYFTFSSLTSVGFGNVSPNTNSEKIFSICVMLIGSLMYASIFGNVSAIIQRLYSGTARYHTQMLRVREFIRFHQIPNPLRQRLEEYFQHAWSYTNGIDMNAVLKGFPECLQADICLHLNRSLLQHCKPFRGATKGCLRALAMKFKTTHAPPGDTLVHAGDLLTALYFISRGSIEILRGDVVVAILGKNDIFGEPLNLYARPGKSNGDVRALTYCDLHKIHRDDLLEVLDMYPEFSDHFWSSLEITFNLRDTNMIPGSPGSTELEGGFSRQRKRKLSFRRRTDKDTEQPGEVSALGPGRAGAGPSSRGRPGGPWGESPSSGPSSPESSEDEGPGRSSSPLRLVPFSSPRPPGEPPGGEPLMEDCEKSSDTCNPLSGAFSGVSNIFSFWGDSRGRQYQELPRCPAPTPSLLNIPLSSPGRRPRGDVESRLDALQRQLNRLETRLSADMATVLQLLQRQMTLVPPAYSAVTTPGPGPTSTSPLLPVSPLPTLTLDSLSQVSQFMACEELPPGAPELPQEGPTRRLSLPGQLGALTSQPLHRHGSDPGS
Sequence of Kdr (P35968 20-1356, species assumed): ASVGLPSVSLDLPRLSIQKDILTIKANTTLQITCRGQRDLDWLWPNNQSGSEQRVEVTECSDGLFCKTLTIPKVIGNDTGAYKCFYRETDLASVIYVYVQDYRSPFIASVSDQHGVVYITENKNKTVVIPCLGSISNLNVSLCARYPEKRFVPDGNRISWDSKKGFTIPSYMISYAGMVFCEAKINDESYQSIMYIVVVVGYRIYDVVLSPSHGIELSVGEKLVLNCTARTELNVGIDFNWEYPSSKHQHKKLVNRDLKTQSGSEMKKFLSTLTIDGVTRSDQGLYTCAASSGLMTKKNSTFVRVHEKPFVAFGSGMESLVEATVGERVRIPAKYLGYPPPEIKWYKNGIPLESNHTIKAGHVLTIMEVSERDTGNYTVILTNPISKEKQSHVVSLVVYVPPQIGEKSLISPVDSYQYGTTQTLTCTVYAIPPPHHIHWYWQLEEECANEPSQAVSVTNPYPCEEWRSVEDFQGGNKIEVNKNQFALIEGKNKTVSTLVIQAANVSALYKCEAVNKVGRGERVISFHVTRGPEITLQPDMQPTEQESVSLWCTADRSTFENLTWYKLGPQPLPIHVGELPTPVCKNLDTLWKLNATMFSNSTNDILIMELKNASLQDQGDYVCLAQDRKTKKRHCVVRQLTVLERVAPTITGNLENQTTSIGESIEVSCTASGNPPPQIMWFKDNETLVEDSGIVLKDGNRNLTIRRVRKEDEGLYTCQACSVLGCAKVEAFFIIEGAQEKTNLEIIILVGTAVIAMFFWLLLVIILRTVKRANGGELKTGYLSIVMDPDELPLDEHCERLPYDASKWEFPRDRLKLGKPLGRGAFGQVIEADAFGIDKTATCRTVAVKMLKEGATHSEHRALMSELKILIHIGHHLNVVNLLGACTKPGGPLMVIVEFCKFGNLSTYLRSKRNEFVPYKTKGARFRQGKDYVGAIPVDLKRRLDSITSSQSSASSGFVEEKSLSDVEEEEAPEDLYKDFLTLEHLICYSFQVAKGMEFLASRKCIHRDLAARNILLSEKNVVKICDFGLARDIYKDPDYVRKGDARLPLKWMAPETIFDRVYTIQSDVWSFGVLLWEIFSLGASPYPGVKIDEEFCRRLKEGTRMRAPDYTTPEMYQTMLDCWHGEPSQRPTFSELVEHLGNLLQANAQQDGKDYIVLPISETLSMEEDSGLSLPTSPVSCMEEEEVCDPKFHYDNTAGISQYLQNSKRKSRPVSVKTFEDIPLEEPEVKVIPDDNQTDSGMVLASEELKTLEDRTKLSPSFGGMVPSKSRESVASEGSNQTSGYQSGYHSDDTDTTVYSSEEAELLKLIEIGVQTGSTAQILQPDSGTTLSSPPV
Sequence of Prkcn (O94806 whole entry, looked up, species assumed): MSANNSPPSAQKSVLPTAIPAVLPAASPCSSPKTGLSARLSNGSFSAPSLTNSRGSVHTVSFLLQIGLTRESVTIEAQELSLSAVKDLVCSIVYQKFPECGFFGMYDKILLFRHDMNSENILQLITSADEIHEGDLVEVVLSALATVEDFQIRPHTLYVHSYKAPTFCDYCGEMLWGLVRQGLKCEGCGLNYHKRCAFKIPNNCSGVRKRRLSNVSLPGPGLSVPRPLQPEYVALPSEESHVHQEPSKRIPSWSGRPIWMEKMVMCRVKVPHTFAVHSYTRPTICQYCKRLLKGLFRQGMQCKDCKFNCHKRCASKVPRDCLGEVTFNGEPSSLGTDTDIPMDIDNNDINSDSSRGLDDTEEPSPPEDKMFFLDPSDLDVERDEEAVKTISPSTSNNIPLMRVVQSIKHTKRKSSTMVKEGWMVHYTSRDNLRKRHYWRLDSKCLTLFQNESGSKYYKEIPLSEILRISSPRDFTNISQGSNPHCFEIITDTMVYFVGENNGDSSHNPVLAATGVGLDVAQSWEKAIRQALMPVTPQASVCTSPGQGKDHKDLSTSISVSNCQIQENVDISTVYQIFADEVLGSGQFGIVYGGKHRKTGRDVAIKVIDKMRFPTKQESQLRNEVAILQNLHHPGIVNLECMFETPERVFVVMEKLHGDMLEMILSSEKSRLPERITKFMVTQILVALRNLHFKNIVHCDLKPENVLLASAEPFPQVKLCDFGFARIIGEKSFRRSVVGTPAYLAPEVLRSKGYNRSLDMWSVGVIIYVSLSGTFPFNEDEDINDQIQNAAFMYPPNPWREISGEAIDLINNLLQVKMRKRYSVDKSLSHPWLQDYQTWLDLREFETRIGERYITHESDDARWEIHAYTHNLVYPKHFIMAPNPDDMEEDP
Sequence of Abl (P00519 242-493): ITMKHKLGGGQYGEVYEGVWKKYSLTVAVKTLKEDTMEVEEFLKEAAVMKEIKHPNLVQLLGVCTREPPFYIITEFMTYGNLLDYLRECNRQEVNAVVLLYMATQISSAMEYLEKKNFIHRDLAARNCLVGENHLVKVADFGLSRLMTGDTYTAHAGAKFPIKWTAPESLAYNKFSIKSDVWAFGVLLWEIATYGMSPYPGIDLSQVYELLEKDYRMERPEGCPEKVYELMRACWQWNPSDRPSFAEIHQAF
Sequence of TgCDPK1 (Q9BJF5 1-507): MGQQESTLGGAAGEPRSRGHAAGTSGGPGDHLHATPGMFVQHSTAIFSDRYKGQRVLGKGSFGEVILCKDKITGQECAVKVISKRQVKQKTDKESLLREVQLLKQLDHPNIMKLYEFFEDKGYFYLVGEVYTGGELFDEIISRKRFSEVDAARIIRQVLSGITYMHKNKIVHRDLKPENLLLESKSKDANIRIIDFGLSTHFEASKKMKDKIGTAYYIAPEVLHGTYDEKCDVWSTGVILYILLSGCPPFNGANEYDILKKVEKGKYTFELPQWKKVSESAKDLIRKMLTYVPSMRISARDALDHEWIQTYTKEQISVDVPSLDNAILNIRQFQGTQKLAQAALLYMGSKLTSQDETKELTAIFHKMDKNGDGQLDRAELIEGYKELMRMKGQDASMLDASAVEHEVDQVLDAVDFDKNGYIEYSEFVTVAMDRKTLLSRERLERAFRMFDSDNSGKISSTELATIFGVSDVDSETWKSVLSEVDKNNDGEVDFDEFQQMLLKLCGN

With `CCCOc1ccc2cc(-c3nn(C(C)(C)C)c(N)c3C(N)=O)ccc2c1` [Compound 26, 5-amino-1-(tert-butyl)-3-(6-propoxynaphthalen-2-yl)-1H-pyrazole-4-carboxamide], the EC50 in data set [1] (setting [8]) is 38 µM; in the data set “Cell toxicity in HepG2”, > 40 µM; in the data set with T. gondii, 0.37 µM. The IC50 against Src is 7.8 µM; at TgCDPK1 (read-out: Enzyme Inhibition (IC50, μM) Tg CDPK1) it was 0.007 µM; on TgCDPK1 (read-out: TgCDPK1 IC50), 0.007 µM; at Abl, > 10 µM; at CpCDPK1 (setting [9]), 0.01 µM; on CpCDPK1 (Table 4, read-out: Enzyme Inhibition (IC50, μM) Cp CDPK1), 0.01 µM.
Take `CCOc1ccc2cc(-c3nn(C(C)(C)C)c(N)c3C(N)=O)ccc2c1` [Compound 3, 5-amino-1-tert-butyl-3-(6-ethoxynaphthalen-2-yl)-1H-pyrazole-4-carboxamide]: the EC50 with C. parvum is 0.05 µM; in the data set “Cell toxicity in HepG2” it was > 40 µM.
Regarding `CCOc1ccc2cc(-c3nn(C(C)(C)C)c(N)c3C(N)=O)cnc2c1` [Compound 39, 5-amino-1-(tert-butyl)-3-(7-ethoxyquinolin-3-yl)-1H-pyrazole-4-carboxamide], the EC50 in data set [1] (setting [10]) is > 30 µM; in data set [1] (Table 3, read-out: Cytotoxicity (CRL8155) EC50), > 30 µM; in data set [1] (setting [8]), > 40 µM; with C. parvum (Table 4), 0.05 µM; in the data set “Cell toxicity in HepG2”, > 40 µM. The “oocysts shed in mouse stool, treated vs vehicle” value in the data set on C. parvum Iowa strain is “the difference was significant”. For the same compound, the values for the IC50 against Prkcn and against Kdr were 1.11 µM and 2.46 µM, respectively. Moreover, the results for the Ki on Prkcn and at Kdr were 0.427 µM and 0.569 µM, respectively. Also, in data set [2], the “stability (in words)” value is listed as “good stability”. The “hERG inhibitory activity (in words)” value on hERG is “no hERG inhibitory activity”. For the same compound, the “inhibition of human protein kinases (panel of 80 hPKs)” value in data set [3] is recorded as “No hPKs were inhibited”. Besides, in data set [4], the “signal in 24 off-target liability screen” value is listed as “no signal was detected”. Also, the “mean parasite burden decreased” value is reported as 69% in [5] (oral gavage 5/10 mg/kg [AM/PM] for 5 d) and 93% in data set [5] (oral gavage 20/40 mg/kg [AM/PM] for 5 d). Further, in [6], the “oral availability (in words)” value is listed as “higher oral availability”. Moreover, in the data set on P-gp, the Papp is 56.3 ×10⁻⁶ cm/s. In “Solubility at pH 6.5”, the “solubility (in words)” value is listed as “good solubility”.
Consider `COc1ccc2cc(-c3nn(C(C)(C)C)c(N)c3C(N)=O)ccc2c1` [Compound 25, 5-amino-1-(tert-butyl)-3-(6-methoxynaphthalen-2-yl)-1H-pyrazole-4-carboxamide], for which the AUC in [7] is 5.94 µM·h. In data set [7], this compound returned a Cmax of 3.1 µM. Further, the Tmax in [7] is 30 min. The concentration giving a half-maximal response (EC50) in [1] (setting [10]) is > 40 µM; in data set [1] (setting [8]), > 40 µM; with C. parvum, 0.1 µM; in “Cell toxicity in HepG2”, > 40 µM. Further, on hERG, the IC50 is > 10 µM.
As for `CCOc1ccc2cc(-c3nn(C4CCCCC4)c(N)c3C(N)=O)cnc2c1` [Compound 1571, 5-amino-1-cyclohexyl-3-(7-ethoxyquinolin-3-yl)-1H-pyrazole-4-carboxamide], the EC50 (in data set [1] (setting [8]); in the data set “Cell toxicity in HepG2”) was > 40 µM in each case. Also, the IC50 against Src (Enzyme Inhibition (IC50, μM) SrcKD, Table 4) is 10 µM; against Src (Src IC50 (μM), Table 3) it was > 10 µM; on Abl, > 10 µM; at CpCDPK1 (setting [9]), 0.005 µM.
